In the NIST ThermoML archive (doi:10.1021/je900874z):

What was measured:
[1] = 101.33 kPa, Liquid; for speed of sound: Pulse-echo method
[2] = xn = mol fraction of the nth substance listed; conditions: 101 kPa, Liquid

CNc1ccccc1 [N-methylaniline]
[1]
Conditions | mass density [kg/m3] | speed of sound [m/s]
293.15 K | 986.077 | 1582.3
298.15 K | 982.066 | 1564.4
303.15 K | 978.011 | 1545.5

CNc1ccccc1 [N-methylaniline] + CC(C)=O
[2]
Conditions | mass density [kg/m3]
293.15 K, x2 = 0.0565 | 979.562
293.15 K, x2 = 0.1032 | 973.934
293.15 K, x2 = 0.1494 | 968.145
293.15 K, x2 = 0.1916 | 962.605
293.15 K, x2 = 0.251 | 954.413
293.15 K, x2 = 0.2952 | 948.053
293.15 K, x2 = 0.3555 | 938.912
293.15 K, x2 = 0.4039 | 931.04
293.15 K, x2 = 0.4478 | 923.576
293.15 K, x2 = 0.4981 | 914.659
293.15 K, x2 = 0.5489 | 905.091
293.15 K, x2 = 0.5965 | 895.722
293.15 K, x2 = 0.6485 | 884.852
293.15 K, x2 = 0.7018 | 873.046
293.15 K, x2 = 0.7472 | 862.27
293.15 K, x2 = 0.802 | 848.69
293.15 K, x2 = 0.8563 | 834.277
293.15 K, x2 = 0.9053 | 820.343
293.15 K, x2 = 0.9548 | 805.391
298.15 K, x2 = 0.044 | 977.005
298.15 K, x2 = 0.0984 | 970.455
298.15 K, x2 = 0.1447 | 964.607
298.15 K, x2 = 0.1996 | 957.353
298.15 K, x2 = 0.2503 | 950.29
298.15 K, x2 = 0.2919 | 944.327
298.15 K, x2 = 0.3511 | 935.283
298.15 K, x2 = 0.3924 | 928.532
298.15 K, x2 = 0.452 | 918.415
298.15 K, x2 = 0.4948 | 910.794
298.15 K, x2 = 0.5563 | 899.086
298.15 K, x2 = 0.6004 | 890.231
298.15 K, x2 = 0.6473 | 880.387
298.15 K, x2 = 0.6962 | 869.434
298.15 K, x2 = 0.7506 | 856.501
298.15 K, x2 = 0.8009 | 843.758
298.15 K, x2 = 0.8518 | 830.205
298.15 K, x2 = 0.8986 | 816.915
298.15 K, x2 = 0.9488 | 801.799
303.15 K, x2 = 0.0461 | 972.638
303.15 K, x2 = 0.0934 | 966.889
303.15 K, x2 = 0.1524 | 959.343
303.15 K, x2 = 0.1937 | 953.815
303.15 K, x2 = 0.2442 | 946.596
303.15 K, x2 = 0.3357 | 933.026
303.15 K, x2 = 0.3991 | 922.737
303.15 K, x2 = 0.4904 | 906.677
303.15 K, x2 = 0.5507 | 895.228
303.15 K, x2 = 0.5949 | 886.274
303.15 K, x2 = 0.6467 | 875.21
303.15 K, x2 = 0.6928 | 864.807
303.15 K, x2 = 0.7424 | 852.961
303.15 K, x2 = 0.7993 | 838.524
303.15 K, x2 = 0.8469 | 825.646
303.15 K, x2 = 0.8977 | 811.117
303.15 K, x2 = 0.9484 | 795.598

CC(C)=O [acetone]
[1]
Conditions | mass density [kg/m3] | speed of sound [m/s]
293.15 K | 790.694 | 1182.8
298.15 K | 785.32 | 1160.7
303.15 K | 778.812 | 1138.7

Nc1ccccc1 [aniline]
[1]
Conditions | mass density [kg/m3] | speed of sound [m/s]
293.15 K | 1021.7 | 1657
298.15 K | 1017.41 | 1638.6
303.15 K | 1013.04 | 1619.2
